In patent publication EP0565593B1, “REDUCING PESTICIDAL INTERACTIONS IN CROPS” (priority 1990, dated 1992):
Like-named read-outs stand apart in the source and are kept apart here.

Experiments:
[1] = test system: Corn; test: Greenhouse test Procedure VII: biocide and antidote in furrow, herbicide POE (Examples 39-42, 48-50, 56-58; Tables 38-41, 47-49, 55-57); assay type: in vivo
Procedure, shortened: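 Corn seed was planted in greenhouse pots, with COUNTER 15G insecticide plus antidote granules applied in-furrow (e.g. 1.1 + 0.37 mg a.i./cm, or 227 g/305 m with acetone-applied safeners). About five days later, herbicides in water with 0.25% v/v X-77 were track-sprayed post-emergence at 187 L/ha. Plant response was scored eight days afterward, with two to four replicates.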

[2] = test system: Corn
[3] = test system: Corn; conditions: for antidote activity: COUNTER with BEACON, PURSUIT (POE) or XRD-498 (PPI), Tables 29-37
[4] = COUNTER 15G + BEACON/co-herbicide combinations, Example 56
[5] = in-furrow antidote, COUNTER 15G + sulfonamide herbicides, Table 41

Row | Compound | corn injury [1, 4] | safening, comparison ([1]; COUNTER/ACCENT, 160 ratio, Example 50) | corn injury [1, 5] | safening ([2]; DIAZINON + Herbicides 1, 21, 18, Example 53) | antidote activity [3] | relieving corn injury, comparison ([3]; Example 29, COUNTER/PURSUIT negative synergy) | safening ([2]; malathion + Herbicides 1, 21, 18, Example 54)
1 | CC1(C)OC(c2ccco2)CN1C(=O)C(Cl)Cl (stereo not shown) [Antidote No. 1, Oxazolidine, 3-(dichloroacetyl)-2,2-dimethyl-5-(2-furanyl)-] | reduced corn injury | more effective than MON-7400 | significantly reduced | Effective safening | most active antidote | more active than Antidote No. 28 | –
2 | O=C(OCc1ccccc1)c1sc(Cl)nc1C(F)(F)F [Antidote No. 7, 5-Thiazolecarboxylic acid, 2-chloro-4-(trifluoromethyl)-, (phenylmethyl) ester] | reduced corn injury | – | significantly reduced | – | slightly more active than other thiazoles tested | – | moderate to high degrees of safening
